Assay results reported in US20130174483A1, “PLANT ARTIFICIAL SEEDS AND METHODS FOR THE PRODUCTION THEREOF” (E I DU PONT DE NEMOURS AND COMPANY, priority 2011, published 2013).

System: sugarcane plantlet, cultivar CPO-1372
Conditions: in vivo
Protocol: Wax paper containers were cut into 4 cm and 7 cm lengths. One open end of each container was secured with either a 38 um thick LDL film, prepared as described in Example 25, or a 254 um thick soybean oil gel film. The latter was prepared by dissolving Kraton® A1535 poly(styrene-b-ethylene-co-butylene-co-styrene-b-styrene) triblock polymer in soybean oil (MP Biomedicals, Solon, Ohio) at 9 wt. % and 155° C., and casting the hot solution on a glass substrate using a doctor blade with a 5 cm wide and 254 um thick gap, preheated to 155° C. Upon cooling to room temperature, the physical gelation of the triblock polymer in the oil yielded a solid, but highly deformable film. LDL film was affixed to the wax paper container using a thin layer of cyanoacrylate adhesive (Sigma-Aldrich, St. Louis, Mo.). Soybean oil gel film was affixed by heating the film, still adhered to the glass substrate, to near its sol-gel transition (approximately 80° C.), pressing the end of the wax-paper container into the softened film, and cooling to room temperature to re-solidify the film.
The 4 and 7 cm wax paper containers, having their bottom ends secured with LDL or soybean oil gel film, were then loaded approximately one-third full with dry Metro-Mix® 360 growing media. One regenerated sugarcane plantlet was then added to each container. […]

For “poly(lactide-b-dimethylsiloxane-b-lactide) [LDL]”, the “discoloration of plantlet shoots in contact with the closure (phytotoxicity)” value was “no discoloration”.
